How the values were obtained:
[1] = tested on: human platelet aggregation; settings: result in words; cited from earlier work
[2] = tested on: smooth muscle of the vas deferens; settings: cited from earlier work
tracheal smooth muscle = settings: in vitro; cited from earlier work
blood platelets = settings: in vitro; cited from earlier work
[3] = tested on: female reproductive system; settings: cited from earlier work
[4] = tested on: human platelet aggregation; assay: Test A: Inhibition of Human Platelet Aggregation; format: cell-based; settings: human platelet rich plasma, in vitro, collagen-induced, 37° C, 15 minutes
Experimental: The ability of test compounds to inhibit platelet aggreagation was determined by a modification of the turbidometric technique of Born (Nature, 194: 927 [1962]). Blood was collected from human volunteer who had not ingested aspirin or aspirin-containing products within the preceding two weeks in heparinized containers and was allowed to settle for one (1) hour. The platelet rich plasma (prp) supernates were collected and cooled. Siliconized glassware was used throughout.
In a representative assay 1.9 ml of PRP and 0.2 ml of test compound at the appropriate concentrations (0.001 to 100 mcgm), or 0.2 ml of distilled water (control procedure) were placed in sample cuvettes. The cuvettes were placed in a 37° C incubation block for 15 minutes, and then in a spectrophotometer linked to a strip chart recorder. After 30-60 seconds, 0.2 ml of a solution, prepared by diluting a calf-skin collagen solution 1:9 with Tyrodes' Solution, was added to each cuvette. Platelet aggregation was evidenced by a decrease in optical density.
An ED50 value was then determined graphically.

gastric secretion = assay: Test B: Inhibition of Rodent Gastric Secretion (pylorus-ligated rat); format: in vivo; settings: subcutaneous, 2 x 1.5 mg/kg (total 3.0 mg/kg), 4 hours after pyloric ligation
Experimental: A procedure based on that described by Lipmann (J. Pharm. Pharmacol., 21:335 [ 1968]) was used to assess the influence of test compounds on gastric secretion. Rats of one sex weighing 150 to 200 g were randomly divided into groups of six animals each and fasted for 48 hours previously to the experiments, water being available adlibitum. The animals were anesthetized with ether, the abdomen was opened through a midline incision and the pylorus was ligated. Test compounds were diluted from stock solution so as to administer a dose of 1.5 mg/kg in a volume equivalent to 1 ml/kg. Subcutaneous injections were applied immediately after surgery and again 2 hours later, so that a total dose of 3.0 mg/kg was administered. Dilutions were made with phosphate buffer (pH 7.38) as recommended by Lee et al. (Prostaglandins 3:29 [ 1973]), in order to insure adequate stability of drugs at the subcutaneous depot. Each compound was tested in one group of rats; an additional control group received only the vehicle.
Four hours after pyloric ligation the animals were killed with ether, the cardias ligated and the stomachs removed. The volume of gastric secretion was measured and the contents centrifuged at 5000 rpm for 10 minutes. Total acid in the supernatant was titrated against a 0.1 N sodium hydroxide solution and the amount expressed in mEq.
Volume and total acid values of the treated group were compared with those of the controls by the "T" test. Antisecretory activity was scored according to the following scale: […]

femoral blood flow = assay: Test C: Increase in Canidae Femoral Blood Flow; format: in vivo; settings: anesthetized dog, intraarterial, 0.001 to 10 mcg
Experimental: The peripheral vasodilator or constrictor effects of test compounds were determined in mongrel dogs of either sex, weighing between 10 and 20 kg anesthestized intravenously with 35 mg/kg of sodium pentobarbital. An external iliac artery was dissected immediately above the femoral arch for a length of approximately 5 cm and a previously calibrated, non-connulating electromagnetic flowmeter sensor with a lumen between 2.5 and 3.5 mm was placed snugly around the vessel. Cannulas were placed in a branch of the artery arising distally to the location of the flowmeter sensor for intraarterial drug administrations, in the contralateral femoral artery for systemic blood pressure recordings and in the trachea for artificial respiration with room air. Femoral blood flow and systemic blood pressure were continuously recorded with an electromagnetic flowmeter and pressure tranducer, respectively.
After an adequate control period, test compounds were injected intraarterially at one log-spaced doses ranging from 0.001 to 10 mcg., in a volume of 0.5 ml and at 5 to 10 minute intervals. Maximum changes in bloodflow, as well as any variations in blood pressure, were tabulated for each dose in absolute values (ml/min. and mmHg). The calculations were made taking as control values those existing immediately before administration of each dose. The direction of the observed change (plus for increase and minus for decrease) was also noted. The dose changing bloodflow by 100 ml/min (ED100 ml/min) was calculated graphically and was used for scoring activity as follows: […]

blood pressure = assay: Test D: Decrease in Normal Feline Blood Pressure and Heart Rate (anesthetized cat); format: in vivo; settings: intravenous, 0.01 to 10.0 mcg/kg, judged only on hypotension
Experimental: The acute effects of test compounds on blood pressure and heart rate were determined in cats of either sex anesthetized with a mixture of pentobarbital sodium (35 mg/kg, i.v.) and barbital sodium (100 mg/kg, i.v.). Cannulas were placed in the trachea to allow adequate spontaneous ventilation, in a femoral artery for blood pressure recording with a strain gage transducer, and in a saphenous vein for drug administration. Heart rate was recorded by means of a cardiotachometer driven by the R wave of the electrocardiogram. After a period of 10 minutes of stable recordings of blood pressure and heart rate, the test compound was administered intravenously at doses increasing from 0.01 to 10.0 mcg/kg, spaced one log and injected at 10 minutes intervals. All doses were injected in a volume of 0.1 ml/kg. Modifications of blood pressure and heart rate induced by the test compound were expressed both in absolute units (mmHg and beats/minutes) and as percent of values recorded immediately before administration of each dose. Biphasic responses were tabulated in the order in which they occur. The direction of the observed changes was also noted (+ for increases and - for decreases).
Activity of compounds in this test was judged only on the basis of the degree of hypotension observed. Thus, the ED50 mmHg (dose decreasing blood pressure by 50 mmHg) was calculated graphically and the compound scored according to the following scale: […]

| Molecule | effect on tracheal smooth muscle (tracheal smooth muscle) | Activity Value Test A (ED50, inhibition of platelet aggregation) [4] | Activity Value Test B (% decrease in acidity) (gastric secretion) | Activity Value Test C (ED100 ml/min, dose changing bloodflow by 100 ml/min) (femoral blood flow) | Activity Value Test D (ED50 mmHg, dose decreasing blood pressure by 50 mmHg) (blood pressure) | also measured |
| --- | --- | --- | --- | --- | --- | --- |
| CCCCC[C@H](O)/C=C/[C@H]1[C@H](O)CC(=O)[C@@H]1CCCCCCC(=O)O [PGE1, prostaglandin E1] | relax |  |  |  |  | inhibition of platelet aggregation by natural prostaglandins [1]: displays a similar activity; contraction of the smooth muscle of the vas deferens [2]: contracts the smooth muscle of the vas deferens; thrombogenesis (blood platelets): inhibits thrombogenesis in vitro |
| CCCCC[C@H](O)/C=C/[C@H]1[C@H](O)CC(=O)[C@@H]1C/C=C\CCCC(=O)O [PGE2] | relax |  |  |  |  |  |
| CCCCC[C@H](O)/C=C/[C@@H]1[C@@H](C/C=C\CCCC(=O)O)[C@@H](O)C[C@H]1O [PGF2α] | contracts the smooth muscle |  |  |  |  | spontaneous abortions ([3]; early pregnancy): induces spontaneous abortions in early pregnancy; effect on fertility / gestation ([3]; female reproductive system): contragestational effects |
| COC(=O)CCCCCC[C@H]1C(=O)C=C[C@@H]1/C=C/[C@H](O)CCCCC1CCC2CCC1C2 (stereo partly drawn) [TR-4119, methyl 7-{5-oxo-2R-[3R-hydroxy-7-(bicyclo[3.2.1]oct-2-yl)-1E-hepentyl]cyclopent-3-en-1R-yl}heptanoate] |  | 1 (>1.0) | 0 (<26) | 0 (>10.0) | 0 (>10.0) |  |
| COC(=O)CCCCCC[C@H]1C(=O)C[C@@H](O)[C@@H]1/C=C/[C@H](O)CCCCC1CCCC2CCCCC21 (stereo partly drawn) [TR-4166] |  | 1 (>1.0) | 0 (<26) | 0 (>10.0) | 0 (>10.0) |  |
| COC(=O)CCCCCC[C@H]1C(=O)C[C@@H](O)[C@@H]1/C=C/[C@@H](O)CCCCC1CCCC2CCCCC21 (stereo partly drawn) [TR-4172] |  | 1 (>1.0) | 0 (<26) | 0 (>10.0) | 0 (>10.0) |  |
| dl-7-{5-oxo-2R[3R-hydroxy-2-(bicyclo[3.2.0]hept-3-yl)-1E-propenyl]cyclopent- [TR-4101] |  | 1 (>1.0) | 1 (26-50, not significant) | 3 (0.01 - 0.1) | 1 (1.01 - 10.0) |  |
